Laboratory results reported in paper PMC9586930, “Molecular insights into the distinct signaling duration for the peptide-induced PTH1R activation” (Nature Communications, 2022).
Positions count from the first letter of the chain named.

Key:
Type in all cases: cell-based
Details in all cases: for ΔpEC50±SEM: relative to WT, n = 3 in triplicate; for ΔpEC50±SEM / Span±SEM: mean ± SEM; for Span±SEM: window between maximal response (Emax) and vehicle, n = 3
PTH1R L174A mutant = target: T1, PTH1R L174A mutant (Homo sapiens, UniProt Q03431, L174A); assay: cAMP accumulation assay (GloSensor), PTH1R L174A
T1 construct: a flag-tag was fused to the N terminal of full-length PTH1R (WT or mutant); expressed in transfected cells; host or cells: HEK293T
T1 sequence (Q03431 27-593 L174A): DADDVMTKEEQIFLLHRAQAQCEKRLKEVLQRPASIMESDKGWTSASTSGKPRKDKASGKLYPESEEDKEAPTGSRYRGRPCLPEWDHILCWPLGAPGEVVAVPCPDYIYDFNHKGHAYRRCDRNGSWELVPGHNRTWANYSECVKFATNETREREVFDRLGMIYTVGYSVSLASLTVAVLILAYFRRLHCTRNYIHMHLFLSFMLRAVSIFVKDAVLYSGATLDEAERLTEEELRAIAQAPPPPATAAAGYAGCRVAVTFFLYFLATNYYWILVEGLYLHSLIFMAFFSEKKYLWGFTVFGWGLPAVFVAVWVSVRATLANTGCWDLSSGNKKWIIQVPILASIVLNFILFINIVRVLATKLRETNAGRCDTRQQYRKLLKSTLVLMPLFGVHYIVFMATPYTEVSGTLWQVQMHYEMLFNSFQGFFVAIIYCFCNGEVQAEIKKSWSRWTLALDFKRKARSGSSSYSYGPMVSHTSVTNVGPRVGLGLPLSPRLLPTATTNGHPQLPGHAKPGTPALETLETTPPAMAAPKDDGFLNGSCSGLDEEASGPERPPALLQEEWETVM
Experimental: (§1) Human embryonic kidney 293 T (HEK293T, ATCC: CRL-1573) cells were transfected with a plasmid mixture consisting of pcDNA3.1-flag-PTH1R (WT or mutants) and the cAMP biosensor GloSensor-22F (Promega) at a ratio of 2:1 (see Supplementary Table 7 for a list of primers used in this study). After 24 h, transfected cells were plated onto a 384-well plate, which was treated with cell adherent reagent (Applygen) in advance. After another 12 h, cells were treated with Hank’s balanced salt solution for starvation and then incubated in CO2-independent media containing 4% GloSensor cAMP Reagent (Promega) at a volume of 5 μl per well and incubated for 20 min at RT before measurements for baseline luminescence (Spark Multimode microplate reader, TECAN). Next, test ligands were added at different concentrations from 10^−6 to 10^−13 M before second measurement. Finally, data were normalized to 100% of the maximal PTH (1-34) response for WT PTH1R using a sigmoidal dose-response in GraphPad Prism.
(§2) Statistical analyses were performed on at least three individual datasets and analysed using GraphPad Prism software. Bars represent differences in the calculated agonist potency (pEC50) and maximum agonist response (Emax) for each mutant relative to the WT receptor. Data are mean± s.e.m. from at least three independent experiments, performed in triplicates. ns, not significant, ^nsP > 0.01; ^*P < 0.01; ^**P < 0.001; ^***P < 0.0001 (one-way analysis of variance (ANOVA) followed by Dunnett’s test, compared with the response of the WT). For dose-response experiments, data were normalized and analyzed using nonlinear curve fitting for the log (agonist) versus response (three parameters) curves.

PTH1R L244A mutant = target: T2, PTH1R L244A mutant (Homo sapiens, UniProt Q03431, L244A); assay: cAMP accumulation assay (GloSensor), PTH1R L244A
T2 construct: a flag-tag was fused to the N terminal of full-length PTH1R (WT or mutant); expressed in transfected cells; host or cells: HEK293T
T2 sequence (Q03431 27-593 L244A): T1 sequence (Q03431 27-593 L174A) with A148L, L218A
Experimental: as §1, §2

PTH1R Q440A mutant = target: T3, PTH1R Q440A mutant (Homo sapiens, UniProt Q03431, Q440A); assay: cAMP accumulation assay (GloSensor), PTH1R Q440A
T3 construct: a flag-tag was fused to the N terminal of full-length PTH1R (WT or mutant); expressed in transfected cells; host or cells: HEK293T
T3 sequence (Q03431 27-593 Q440A): T1 sequence (Q03431 27-593 L174A) with A148L, Q414A
Experimental: as §1, §2

| Substance | span (from the WT) (PTH1R L174A mutant; PTH1R L1741.26A, replicate 1) | ΔpEC50 (from the WT) (PTH1R L174A mutant; PTH1R L1741.26A, replicate 1) | span (from the WT) (PTH1R L174A mutant; PTH1R L1741.26A, replicate 2) | ΔpEC50 (from the WT) (PTH1R L174A mutant; PTH1R L1741.26A, replicate 2) | span (from the WT) (PTH1R L174A mutant; PTH1R L1741.26A, replicate 3) | ΔpEC50 (from the WT) (PTH1R L174A mutant; PTH1R L1741.26A, replicate 3) | ΔpEC50±SEM (PTH1R L174A mutant) | ΔpEC50 (from the WT) (PTH1R L174A mutant; replicate 1) | ΔpEC50 (from the WT) (PTH1R L174A mutant; replicate 2) | ΔpEC50 (from the WT) (PTH1R L174A mutant; replicate 3) | Span±SEM (PTH1R L174A mutant) | span (from the WT) (PTH1R L244A mutant; PTH1R L2442.71A, replicate 1) | ΔpEC50 (from the WT) (PTH1R L244A mutant; PTH1R L2442.71A, replicate 1) | span (from the WT) (PTH1R L244A mutant; PTH1R L2442.71A, replicate 2) | ΔpEC50 (from the WT) (PTH1R L244A mutant; PTH1R L2442.71A, replicate 2) | span (from the WT) (PTH1R L244A mutant; PTH1R L2442.71A, replicate 3) | ΔpEC50 (from the WT) (PTH1R L244A mutant; PTH1R L2442.71A, replicate 3) | ΔpEC50±SEM (PTH1R L244A mutant) | ΔpEC50 (from the WT) (PTH1R L244A mutant; replicate 1) | ΔpEC50 (from the WT) (PTH1R L244A mutant; replicate 2) | also measured |
| --- | --- | --- | --- | --- | --- | --- | --- | --- | --- | --- | --- | --- | --- | --- | --- | --- | --- | --- | --- | --- | --- |
| H-AVAEIQLMHQRAKWIQDARRRAFLHKLIAEIHTAEI-OH [LA-PTH, long-acting PTH analog, modified PTH/PTHrP hybrid] | 93.64 | -0.262 | 87.77 | -0.161 | 98.4 | -0.17 | -0.20±0.03 | -0.262 | -0.161 | -0.17 | 93.27±3.07 | 131 | -0.382 | 190.8 | -0.346 | 179.4 | -0.43 | -0.39±0.02 | -0.382 | -0.346 | ΔpEC50 (from the WT) (PTH1R L244A mutant; replicate 3): -0.43; Span±SEM (PTH1R L244A mutant): 167.07±18.33; span (from the WT) (PTH1R Q440A mutant; PTH1R Q4407.38A, replicate 1): 337.5; ΔpEC50 (from the WT) (PTH1R Q440A mutant; PTH1R Q4407.38A, replicate 1): -0.045; span (from the WT) (PTH1R Q440A mutant; PTH1R Q4407.38A, replicate 2): 279.8; ΔpEC50 (from the WT) (PTH1R Q440A mutant; PTH1R Q4407.38A, replicate 2): -0.009; span (from the WT) (PTH1R Q440A mutant; PTH1R Q4407.38A, replicate 3): 250.7; ΔpEC50 (from the WT) (PTH1R Q440A mutant; PTH1R Q4407.38A, replicate 3): 0.015; ΔpEC50±SEM (PTH1R Q440A mutant): -0.01±0.02; ΔpEC50 (from the WT) (PTH1R Q440A mutant; replicate 1): -0.045; ΔpEC50 (from the WT) (PTH1R Q440A mutant; replicate 2): -0.009; ΔpEC50 (from the WT) (PTH1R Q440A mutant; replicate 3): 0.015; Span±SEM (PTH1R Q440A mutant): 289.33±25.51 |
| H-AVSEHQLLHDKGKSIQDLRRRELLEKLL-{Aib}-KLHTA-NH2 [ABL, Abaloparatide, an analog of PTHrP, short-acting PTH1R agonist] | 94.46 | -0.37 | 117 | -0.52 | 129.9 | -0.682 | -0.52±0.09 | -0.37 | -0.52 | -0.682 | 113.79±10.36 | 180 | -2.593 | 247.7 | -2.562 | 245.8 | -2.458 | -2.54±0.04 | -2.593 | -2.562 | ΔpEC50 (from the WT) (PTH1R L244A mutant; replicate 3): -2.458; Span±SEM (PTH1R L244A mutant): 224.50±22.26; span (from the WT) (PTH1R Q440A mutant; PTH1R Q4407.38A, replicate 1): 252.6; ΔpEC50 (from the WT) (PTH1R Q440A mutant; PTH1R Q4407.38A, replicate 1): -1.026; span (from the WT) (PTH1R Q440A mutant; PTH1R Q4407.38A, replicate 2): 278.7; ΔpEC50 (from the WT) (PTH1R Q440A mutant; PTH1R Q4407.38A, replicate 2): -0.991; span (from the WT) (PTH1R Q440A mutant; PTH1R Q4407.38A, replicate 3): 338; ΔpEC50 (from the WT) (PTH1R Q440A mutant; PTH1R Q4407.38A, replicate 3): -1.125; ΔpEC50±SEM (PTH1R Q440A mutant): -1.05±0.04; ΔpEC50 (from the WT) (PTH1R Q440A mutant; replicate 1): -1.026; ΔpEC50 (from the WT) (PTH1R Q440A mutant; replicate 2): -0.991; ΔpEC50 (from the WT) (PTH1R Q440A mutant; replicate 3): -1.125; Span±SEM (PTH1R Q440A mutant): 289.77±25.27 |
| H-SVSEIQLMHNLGKHLNSMERVEWLRKKLQDVHNF-OH [PTH, Teriparatide, human PTH 1-34, long-acting peptide agonist of PTH1R] | 90.7 | -0.41 | 103.2 | -0.706 | 154.9 | -0.481 | -0.53±0.09 | -0.41 | -0.706 | -0.481 | 116.27±19.65 | 138.7 | -0.566 | 168.7 | -0.398 | 186.9 | -0.464 | -0.48±0.05 | -0.566 | -0.398 | ΔpEC50 (from the WT) (PTH1R L244A mutant; replicate 3): -0.464; Span±SEM (PTH1R L244A mutant): 150.17±18.04; span (from the WT) (PTH1R Q440A mutant; PTH1R Q4407.38A, replicate 1): 372.2; ΔpEC50 (from the WT) (PTH1R Q440A mutant; PTH1R Q4407.38A, replicate 1): -0.177; span (from the WT) (PTH1R Q440A mutant; PTH1R Q4407.38A, replicate 2): 273.2; ΔpEC50 (from the WT) (PTH1R Q440A mutant; PTH1R Q4407.38A, replicate 2): -0.116; span (from the WT) (PTH1R Q440A mutant; PTH1R Q4407.38A, replicate 3): 248; ΔpEC50 (from the WT) (PTH1R Q440A mutant; PTH1R Q4407.38A, replicate 3): -0.201; ΔpEC50±SEM (PTH1R Q440A mutant): -0.16±0.03; ΔpEC50 (from the WT) (PTH1R Q440A mutant; replicate 1): -0.177; ΔpEC50 (from the WT) (PTH1R Q440A mutant; replicate 2): -0.116; ΔpEC50 (from the WT) (PTH1R Q440A mutant; replicate 3): -0.201; Span±SEM (PTH1R Q440A mutant): 297.80±37.90 |
